{
  "source": "patent US20200253877A1",
  "about": "“GEMCABENE, PHARMACEUTICALLY ACCEPTABLE SALTS THEREOF, COMPOSITIONS THEREOF AND METHODS OF USE THEREFOR” (NEUROBO PHARMACEUTICALS, INC., priority 2018, published 2020)",
  "test_system": "hepatic mRNA expression in STAM™ mice",
  "assay": "Murine STAM model of NASH-HCC: hepatic gene expression by quantitative RT-PCR",
  "assay_type": "in vivo, mouse",
  "protocol": "A study was performed to evaluate the efficacy of gemcabene calcium salt hydrate Crystal Form 1 having a PSD90 of 52 μm as measured by laser light diffraction, in treating non-alcoholic steatosis hepatitis (NASH) in the murine STAM™ model of NASH-HCC.\nBriefly, two-day old neonatal C57BL/6 male mice were administered low-dose streptozotocin (STZ), and were subsequently fed a HFC diet from 4 weeks of age. In this model, the mice typically develop liver steatosis and diabetes, reaching steatohepatitis within 3 weeks, followed by cirrhosis within 8 weeks, and carcinoma within 16 weeks. In the current study, mice were administered daily oral gemcabene calcium salt hydrate Crystal Form 1 starting at week 6 of age and were sacrificed at week 9. […] These STAM™ groups were orally administered from week 6 one of the following: water-vehicle, gemcabene calcium salt hydrate Crystal Form 1 at 30, 100 and 300 mg/kg daily, or telmisartan ([…]®) 10 mg/kg daily. […] All groups were sacrificed at week 9. Vehicle, gemcabene calcium salt hydrate Crystal Form 1, or telmisartan were administered by oral gavage once daily.\nVarious gene expression markers of liver metabolism were evaluated by Real-Time PCR (RT-PCR) in all mouse groups. Total RNA was extracted from liver samples using RNAiso (Takara Bio, Japan) according to the manufacturer's instructions. […] of RNA was reverse-transcribed using a reaction mixture containing 4.4 mM MgCl2 (F. Hoffmann-La Roche, Switzerland), 40 U RNase inhibitor (Toyobo, Japan), 0.5 mM dNTP (Promega, USA), 6.28 μM random hexamer (Promega), 5×first strand buffer (Promega), 10 mM dithiothreitol (Invitrogen, USA) and 200 U MMLV-RT (Invitrogen) in a final volume of 20 μL. The reaction was carried out for 1 hour at 37° C., followed by 5 minutes at 99° C. Real-time PCR was performed using real-time PCR DICE and SYBR premix Taq (Takara Bio). To calculate the relative mRNA expression level, the expression of each gene was normalized to that of reference gene 36B4 (gene symbol: RplpO). Information of PCR-primer sets is described in Tables 37A-37C. Statistical analyses were performed using the Bonferroni Multiple Comparison Test on GraphPad Prism 6 (GraphPad Software Inc., USA). P values <0.05 were considered statistically significant. Results are expressed as mean±SD.\nIn order to calculate the relative mRNA expression level, the expression of each gene was normalized to that of the reference gene 36B4 (gene symbol: RplpO). The gene expression levels were measured by quantitative RT-PCR. Results were normalized with values for the vehicle-treated normal group. […] Gemcabene calcium salt hydrate Crystal Form 1 (PSD90=52 μm) modulated the mRNA expression of many hepatic genes that play a significant role in the liver homeostasis and injury.",
  "key": {"[1]": {"settings": "10 mg/kg, n = 7, STAM mice, normalized to non-treated group"}, "[2]": {"settings": "gemcabene Form 1 100 mg/kg, telmisartan 10 mg/kg"}, "[3]": {"settings": "vs Vehicle in NASH group, gemcabene Form 1 100 and 300 mg/kg, telmisartan 10 mg/kg"}},
  "data": [
    {"smiles": "CCCc1nc2c(C)cc(-c3nc4ccccc4n3C)cc2n1Cc1ccc(-c2ccccc2C(=O)O)cc1", "note": "[telmisartan, reference compound]", "values": [
      {"measurement": "ACC1 gene expression (mean ± SD)", "setting": "[1]", "result": "0.7 ± 0.1"},
      {"measurement": "ACC2 gene expression (mean ± SD)", "setting": "[1]", "result": "0.3 ± 0.1"},
      {"measurement": "ADH-4 gene expression (mean ± SD)", "setting": "[1]", "result": "0.6 ± 0.2"},
      {"measurement": "ANGPTL3 gene expression (mean ± SD)", "setting": "[1]", "result": "0.7 ± 0.2"},
      {"measurement": "ANGPTL4 gene expression (mean ± SD)", "setting": "[1]", "result": "2.1 ± 0.3"},
      {"measurement": "ANGPTL8 gene expression (mean ± SD)", "setting": "[1]", "result": "0.3 ± 0.1"},
      {"measurement": "ApoC-III gene expression (mean ± SD)", "setting": "[1]", "result": "0.8 ± 0.2"},
      {"measurement": "CCR2 gene expression (mean ± SD)", "setting": "[1]", "result": "2.4 ± 0.8"},
      {"measurement": "CCR5 gene expression (mean ± SD)", "setting": "[1]", "result": "1.5 ± 0.3"},
      {"measurement": "CRP gene expression (mean ± SD)", "setting": "[1]", "result": "0.9 ± 0.1"},
      {"measurement": "CXCL1/KC gene expression (mean ± SD)", "setting": "[1]", "result": "0.6 ± 0.3"},
      {"measurement": "Fetuin-A gene expression (mean ± SD)", "setting": "[1]", "result": "1.0 ± 0.1"},
      {"measurement": "IL-1β gene expression (mean ± SD)", "setting": "[1]", "result": "0.7 ± 0.2"},
      {"measurement": "IL-6 gene expression (mean ± SD)", "setting": "[1]", "result": "0.8 ± 0.4"},
      {"measurement": "LDL receptor gene expression (mean ± SD)", "setting": "[1]", "result": "0.7 ± 0.3"},
      {"measurement": "LPL gene expression (mean ± SD)", "setting": "[1]", "result": "2.4 ± 0.5"},
      {"measurement": "MCP-1 gene expression (mean ± SD)", "setting": "[1]", "result": "2.1 ± 1.0"},
      {"measurement": "MIP-1β gene expression (mean ± SD)", "setting": "[1]", "result": "3.9 ± 1.5"},
      {"measurement": "MMP-2 gene expression (mean ± SD)", "setting": "[1]", "result": "1.4 ± 0.7"},
      {"measurement": "NF-κB gene expression (mean ± SD)", "setting": "[1]", "result": "1.1 ± 0.1"},
      {"measurement": "PNPLA3 gene expression (mean ± SD)", "setting": "[1]", "result": "0.1 ± 0.0"},
      {"measurement": "SCD1 gene expression (mean ± SD)", "setting": "[1]", "result": "0.1 ± 0.0"},
      {"measurement": "SREBP-1 gene expression (mean ± SD)", "setting": "[1]", "result": "0.7 ± 0.2"},
      {"measurement": "Sulf-2 gene expression (mean ± SD)", "setting": "[1]", "result": "3.9 ± 0.9"},
      {"measurement": "TIMP-1 gene expression (mean ± SD)", "setting": "[1]", "result": "8.6 ± 5.1"},
      {"measurement": "TNF-α gene expression (mean ± SD)", "setting": "[1]", "result": "3.0 ± 1.2"},
      {"measurement": "α-SMA gene expression (mean ± SD)", "setting": "[1]", "result": "2.3 ± 0.7"},
      {"measurement": "LDL receptor gene expression", "setting": "STAM mice", "result": "no effect"},
      {"measurement": "ACC-1 mRNA expression (relative, mean±SD)", "setting": "[2]", "result": "0.7±0.1"},
      {"measurement": "ADH-4 mRNA expression (relative, mean±SD)", "setting": "[2]", "result": "0.6±0.2"},
      {"measurement": "CCR2 mRNA expression (relative, mean±SD)", "setting": "[2]", "result": "2.4±0.8"},
      {"measurement": "CCR5 mRNA expression (relative, mean±SD)", "setting": "[2]", "result": "1.5±0.3"},
      {"measurement": "CRP mRNA levels (relative, mean±SD)", "setting": "[2]", "result": "No significant differences"},
      {"measurement": "MCP-1 mRNA expression (relative, mean±SD)", "setting": "[2]", "result": "2.1±1.0"},
      {"measurement": "MIP-1β mRNA levels (relative, mean±SD)", "setting": "[2]", "result": "3.9±1.5"},
      {"measurement": "hepatic LPL mRNA expression levels", "setting": "vs Vehicle in NASH group, gemcabene Form 1 30, 100 and 300 mg/kg, telmisartan 10 mg/kg", "result": "no significant difference"},
      {"measurement": "ANGPTL4 mRNA expression levels", "setting": "[3]", "result": "significant down-regulations"},
      {"measurement": "IL-6 mRNA expression level", "setting": "[3]", "result": "significant down-regulations"}
    ]}
  ]
}
